Data taken from the supplement of paper PMC12317010.
Where a name gives a salt, the structure may show the parent alone.

Assay: collision cross section in nitrogen (drift tube, single-field); higher = larger gas-phase ion size
[1] = ion type: [M-H], ion source: ESI, ion mode: Negative
[2] = ion type: [M+H], ion source: APCI, ion mode: Positive
[3] = ion type: [M+H], ion source: ESI, ion mode: Positive
[4] = ion type: [M+Na], ion source: ESI, ion mode: Positive
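Further: chemical standards at 10 µM analysed by drift tube IMS-QTOF MS in about 3.95 torr nitrogen, mean of duplicate injections differing ≤1%, mass error below 10 ppm.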

Row | Structure (SMILES) | collision cross section in nitrogen [1] [Å²] | collision cross section in nitrogen [2] [Å²] | collision cross section in nitrogen [3] [Å²] | collision cross section in nitrogen [4] [Å²] | collision cross section in nitrogen (ion type: [M+], ion source: APCI, ion mode: Positive) [Å²]
1 | CCCCCCCCOC(=O)c1ccccc1O [Octyl salicylate] | 162.2 | – | – | – | –
2 | CCCCCCCCOC(=O)c1ccc(O)cc1 [Octylparaben] | 169.1 | – | – | – | –
3 | CCCCCCCCP(=O)(O)O [Octylphosphonic acid] | 149.9 | – | – | – | –
4 | Cc1c(C(=O)NCCO)[n+]([O-])c2ccccc2[n+]1[O-] [Olaquindox] | 161.2 | – | – | – | –
5 | CCCCCCCC/C=C\CCCCCCCC(=O)O [Oleic acid] | 176.3 | – | – | – | –
6 | CCCCCCCC/C=C\CCCCCCCC(=O)N(C)CC(=O)O [Oleyl sarcosine] | 191.2 | 200.7 | 200.6 | 196 | –
7 | CCCCCc1cc(O)cc(O)c1 [Olivetol] | 148.5 | – | – | – | –
8 | CNC(=O)CSP(=O)(OC)OC [Omethoate] | – | 137.1 | – | 145.9 | –
9 | CCCN(CCC)c1c([N+](=O)[O-])cc(S(N)(=O)=O)cc1[N+](=O)[O-] [Oryzalin] | 177.3 | – | – | – | –
10 | CC(C)Oc1cc(-n2nc(C(C)(C)C)oc2=O)c(Cl)cc1Cl [Oxadiazon] | 177.1 | – | – | – | –
11 | COCC(=O)N(c1c(C)cccc1C)N1CCOC1=O [Oxadixyl] | – | – | – | 167.1 | –
12 | CNC(=O)ON=C(SC)C(=O)N(C)C [Oxamyl] | – | – | – | 150.9 | –
13 | O=C1Nc2ccc(Cl)cc2C(c2ccccc2)=NC1O (configuration not stated) [Oxazepam] | 162.7 | 163.5 | 163.7 | 180 | –
14 | NC(=O)N1c2ccccc2CC(=O)c2ccccc21 [Oxcarbazepine] | – | 153.9 | 154.8 | 162.4 | –
15 | COC(=O)Nc1nc2cc(S(=O)c3ccccc3)ccc2[nH]1 (configuration not stated) [Oxfendazole] | 177 | 179 | 178.2 | 191.4 | –
16 | CCn1cc(C(=O)O)c(=O)c2cc3c(cc21)OCO3 [Oxolinic acid] | – | 152.6 | 152.3 | 165 | –
17 | CC1=C(C(=O)Nc2ccccc2)S(=O)(=O)CCO1 [Oxycarboxin] | – | – | – | 168.9 | –
18 | CCOc1cc(Oc2ccc(C(F)(F)F)cc2Cl)ccc1[N+](=O)[O-] [Oxyfluorfen] | 172.1 | – | – | – | –
19 | O=c1[nH]c(=O)c2c[nH]nc2[nH]1 [Oxypurinol] | 122.3 | – | – | – | –
20 | CN(C)[C@@H]1C(O)=C(C(N)=O)C(=O)[C@@]2(O)C(O)=C3C(=O)c4c(O)cccc4[C@@](C)(O)[C@H]3[C@H](O)[C@@H]12 [Oxytetracycline hydrochloride] | 198.4 | 199.9 | 197.8 | 207.7 | –

Row | Structure (SMILES) | collision cross section in nitrogen [1] [Å²] | collision cross section in nitrogen [2] [Å²] | collision cross section in nitrogen [3] [Å²] | collision cross section in nitrogen [4] [Å²] | collision cross section in nitrogen (ion type: [M+], ion source: APCI, ion mode: Positive) [Å²]
21 | CC(C)(C)[C@H](O)[C@H](Cc1ccc(Cl)cc1)n1cncn1 [Paclobutrazol] | – | – | 171.5 | 189.4 | –
22 | COc1ccnc(CS(=O)c2nc3cc(OC(F)F)ccc3[nH]2)c1OC (configuration not stated) [Pantoprazole sodium] | 187 | 185.5 | 185.2 | 185.5 | –
23 | CCOC(=O)c1ccc(N(C)C)cc1 [Parbenate] | – | 149.3 | 149.6 | – | –
24 | OC(c1ccc(Cl)cc1)(c1ccc(Cl)cc1)c1cccnc1 [Parinol] | 177.2 | 183.7 | 183.1 | – | –
25 | CCCC(Cn1cncn1)c1ccc(Cl)cc1Cl (configuration not stated) [Penconazole] | – | 166.3 | 166.1 | – | –
26 | O=C(Nc1ccccc1)N(Cc1ccc(Cl)cc1)C1CCCC1 [Pencycuron] | 185.7 | 180.7 | 180.5 | 192.8 | –
27 | CCC(CC)Nc1c([N+](=O)[O-])cc(C)c(C)c1[N+](=O)[O-] [Pendimethalin] | 163.7 | – | – | – | –
28 | CC1(C)S[C@@H]2[C@H](NC(=O)COc3ccccc3)C(=O)N2[C@H]1C(=O)O [Penicillin VK] | – | 182 | 182.1 | 184.1 | –
29 | COc1cnc(OC)n2nc(NS(=O)(=O)c3c(OCC(F)F)cccc3C(F)(F)F)nc12 [Penoxsulam] | 193.3 | 196 | 195.6 | 198.5 | –
30 | Nc1c(Cl)c(Cl)c(Cl)c(Cl)c1Cl [Pentachloroaniline] | 138.4 | – | – | – | –
31 | C=CC(=O)OCC(COC(=O)C=C)(COC(=O)C=C)COC(=O)C=C [Pentaerythritol tetraacrylate] | – | – | 172.6 | 178.8 | –
32 | C=CC(=O)OCC(CO)(COC(=O)C=C)COC(=O)C=C [Pentaerythritol triacrylate] | – | – | – | 165.1 | –
33 | OCCOCCOCCOCCOCCO [Pentaethylene glycol] | – | – | – | 150.1 | –
34 | N=C(N)c1ccc(OCCCCCOc2ccc(C(=N)N)cc2)cc1 [Pentamidine isethionate] | – | – | 177.4 | 183.2 | –
35 | N=C(N)c1ccc(OCCCCCOc2ccc(C(=N)N)cc2)cc1 [Pentamidine] | – | 176.9 | – | – | –
36 | O=S(=O)(O)C(F)(F)C(F)(F)C(F)(F)C(F)(F)F [Perfluorobutanesulfonic acid] | 133.8 | – | – | – | –
37 | O=C(O)C(F)(F)C(F)(F)C(F)(F)C(F)(F)C(F)(F)C(F)(F)C(F)(F)C(F)(F)C(F)(F)F [Perfluorodecanoic acid] | 175.1 | – | – | – | –
38 | O=C(O)C(F)(F)C(F)(F)C(F)(F)C(F)(F)C(F)(F)C(F)(F)C(F)(F)C(F)(F)F [Perfluorononanoic acid] | 166.1 | – | – | – | –
39 | NS(=O)(=O)C(F)(F)C(F)(F)C(F)(F)C(F)(F)C(F)(F)C(F)(F)C(F)(F)C(F)(F)F [Perfluorooctanesulfonamide] | 170.4 | – | – | – | –
40 | O=S(=O)(O)C(F)(F)C(F)(F)C(F)(F)C(F)(F)C(F)(F)C(F)(F)C(F)(F)C(F)(F)F [Perfluorooctanesulfonic acid] | 168.7 | – | – | – | –

Row | Structure (SMILES) | collision cross section in nitrogen [1] [Å²] | collision cross section in nitrogen [2] [Å²] | collision cross section in nitrogen [3] [Å²] | collision cross section in nitrogen [4] [Å²] | collision cross section in nitrogen (ion type: [M+], ion source: APCI, ion mode: Positive) [Å²]
41 | O=C(O)C(F)(F)C(F)(F)C(F)(F)C(F)(F)C(F)(F)C(F)(F)C(F)(F)F [Perfluorooctanoic acid] | 157 | – | – | – | –
42 | O=C(O)C(F)(F)C(F)(F)C(F)(F)C(F)(F)C(F)(F)C(F)(F)C(F)(F)C(F)(F)C(F)(F)C(F)(F)F [Perfluoroundecanoic acid] | 183.9 | – | – | – | –
43 | CCC[C@H](N[C@@H](C)C(=O)N1[C@H](C(=O)O)C[C@@H]2CCCC[C@@H]21)C(=O)OCC [Perindopril erbumine] | 190.7 | – | 189.7 | 196.4 | –
44 | CCOc1ccc(NC(C)=O)cc1 [Phenacetin] | – | 141.4 | 141.5 | – | –
45 | Nc1ccc(N=Nc2ccccc2)c(N)n1 [Phenazopyridine hydrochloride] | 148.1 | 150 | 150.3 | – | –
46 | CCC1(c2ccccc2)C(=O)N=C(O)NC1=O (configuration not stated) [Phenobarbital sodium] | 150.4 | – | – | – | –
47 | O=S1(=O)OC(c2ccc(O)cc2)(c2ccc(O)cc2)c2ccccc21 [Phenol Red sodium salt] | 181.8 | – | 179.8 | – | –
48 | O=S1(=O)OC(c2ccc(O)cc2)(c2ccc(O)cc2)c2ccccc21 [Phenol red] | 182 | – | – | – | –
49 | O=C1OC(c2ccc(O)cc2)(c2ccc(O)cc2)c2ccccc21 [Phenolphthalein] | 176.2 | 173.8 | 173.9 | 191.8 | –
50 | O=C(O)c1ccccc1C(c1ccc(O)cc1)c1ccc(O)cc1 [Phenolphthalin] | 184.1 | – | – | – | –
51 | c1ccc2c(c1)Nc1ccccc1S2 [Phenothiazine] | – | – | – | – | 136
52 | CCOC(=O)C(SP(=S)(OC)OC)c1ccccc1 (configuration not stated) [Phenthoate] | – | – | – | 175.1 | –
53 | O=C(Oc1ccccc1)c1ccccc1O [Phenyl salicylate] | 145.7 | – | – | – | –
54 | O=C(Oc1ccccc1)c1ccc(O)cc1 [Phenylparaben] | 150.3 | – | – | – | –
55 | O=P(O)(O)c1ccccc1 [Phenylphosphonic acid] | 130.1 | – | – | – | –
56 | CCOP(=S)(OCC)SCS(=O)(=O)CC [Phorate sulfone] | – | – | – | 162.8 | –
57 | CCOP(=O)(N=C1SCCS1)OCC [Phosfolan] | – | 150.2 | 150.2 | 165.3 | –
58 | CCCCOP(=O)(O)OCCCC [Phosphoric acid, dibutyl ester] | 151.3 | – | – | – | –
59 | Cc1cccc(OP(=O)(Oc2cccc(C)c2)Oc2cccc(C)c2)c1 [Phosphoric acid, tris(3-methylphenyl) ester] | – | 188.7 | 188.6 | 198.9 | –
